Laboratory results: PMC7083880 (Nature Communications, 2020)
“And” between values parts separate entries of the source, which are not always exact repeats. Equal entries are not always repeated.

Tests used:
[1] = system: firefly luciferase (Fluc) gene with UGA nonsense codon at position 109 in HeLa cells; assay: Firefly luciferase readthrough assay, UGA PTC construct; format: cell-based, human; settings: for Luciferase activity, UGA PTC: G418 1mg/ml
Source text: To identify the compounds responsible for this activity, a semi-preparative HPLC fractionation protocol was used. […] (Fig. 1b). DMSO and G418 were used, respectively, as a negative and a positive control.
The value of each luciferase measurement is presented in the Source Data File. All data shown in c, d are representative of two independent experiments. Source data are provided as a Source Data file.
HeLa cells were transfected with the FLuc-int-UGA construct using lipofectamine 3000 (Life technologies) according to the manufacturer’s recommendations. […] Steadylite plus luciferase substrate (Perkin Elmer, Waltham, MA, USA) was then added to each well before measuring the visible light from each well for 10 s with a Tristar luminometer (Berthold technologies, Versailles, France). The plate was read twice and the reported values are averages of the two reads.

FTSJ1 = molecular target: T1, FTSJ1 (Homo sapiens, UniProt Q9UET6); assay: UGA readthrough luciferase assay with FTSJ1 overexpression; format: cell-based
T1 construct: host or cells: HeLa
T1 sequence (Q9UET6 1-329): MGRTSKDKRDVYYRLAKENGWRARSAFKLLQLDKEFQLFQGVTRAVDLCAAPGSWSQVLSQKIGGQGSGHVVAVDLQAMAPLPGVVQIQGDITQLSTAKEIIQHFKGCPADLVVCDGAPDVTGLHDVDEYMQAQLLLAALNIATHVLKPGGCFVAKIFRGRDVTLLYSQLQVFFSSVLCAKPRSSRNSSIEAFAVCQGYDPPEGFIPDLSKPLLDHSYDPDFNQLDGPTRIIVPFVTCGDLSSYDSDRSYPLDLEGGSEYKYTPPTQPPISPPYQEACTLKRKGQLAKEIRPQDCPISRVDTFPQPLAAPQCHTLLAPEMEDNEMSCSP
Source text: Firefly luciferase from HEK293FT cells transfected with the Fluc-int-UGA construct was immunoprecipitated and digested with trypsin. The MS/MS spectrum of the peptide containing the PTC position and the sequence determination are shown. The upper red and blue sequences indicate the amino acids validated, respectively, by detection of Nter and Cter peptide fragments (b and y ion series). Peptide fragments y6 and y7 clearly identify tryptophan (W) at the PTC position. The black peaks correspond to non-attributed mass-to-charge ratio (m/z) values. […] Readthrough efficiency was determined by measuring luciferase activity in HeLa cells co-transfected with the firefly luciferase construct described in Fig. 1b and with increasing amounts of an expression vector for either FTSJ1 or CTU1 (0.5, 1, or 2 µg). The empty expression vector (E.v.) was used as control. […] The experiment was performed twice and the results of both experiments (Exp1 and Exp2) are shown. c Western blot analysis of FTSJ1 and CTU1. d 2′-O-methylation analysis of tRNA^Trp, tRNA^SER, and tRNA^GLN by RiboMethSeq. […] A molecular weight marker is indicated to the left of each gel. p-values (p) were calculated using Student’s t-test. Source data are provided as a Source Data file.
Among the enzymes modifying tRNAs liable to recognize a stop codon by extended wobbling, human FTSJ1 (TRM7 in yeast) exclusively modifies tRNAs involved in UGA readthrough. In addition to other tRNA targets, FTSJ1 methylates the cytosine at position 34 of tRNA^Trp. Inhibition of this modification could increase the capacity of tRNA^Trp to misdecode and recognize the UGA stop codon. […] FTSJ1 and CTU1 overexpression were assessed by western-blot analysis (Fig. 5c).

With CN[C@@H]1[C@@H](O)[C@@H](O[C@@H]2[C@@H](O)[C@H](O[C@H]3O[C@H]([C@@H](C)O)[C@@H](O)[C@H](O)[C@H]3N)[C@@H](N)C[C@H]2N)OC[C@]1(C)O [G418, reference compound] the “Luciferase activity, UGA PTC, dose response” value ([1]; 0.39µM, Exp. 1) was 701.361, the “Luciferase activity, UGA PTC, dose response” value ([1]; 0.39µM, Exp. 2) was 678.75 and the “Luciferase activity, UGA PTC, dose response” value ([1]; 0.39µM, average) was 690±16 and 690.055. The “Luciferase activity, UGA PTC, dose response” value ([1]; 0.78µM, Exp. 1) was 783.19, the “Luciferase activity, UGA PTC, dose response” value ([1]; 0.78µM, Exp. 2) was 761.5 and the “Luciferase activity, UGA PTC, dose response” value ([1]; 0.78µM, average) was 772±15 and 772.345. For the same compound, the “Luciferase activity, UGA PTC, dose response” value ([1]; 1.56µM, Exp. 1) was 853.418, the “Luciferase activity, UGA PTC, dose response” value ([1]; 1.56µM, Exp. 2) was 829 and the “Luciferase activity, UGA PTC, dose response” value ([1]; 1.56µM, average) was 841±17 and 841.209. The “Luciferase activity, UGA PTC, dose response” value ([1]; 6.25µM, Exp. 1) was 1017.65, the “Luciferase activity, UGA PTC, dose response” value ([1]; 6.25µM, Exp. 2) was 990.5 and the “Luciferase activity, UGA PTC, dose response” value ([1]; 6.25µM, average) was 1004±19 and 1004.07. The “Luciferase activity, UGA PTC, dose response” value ([1]; 25µM, Exp. 1) was 1013.6, the “Luciferase activity, UGA PTC, dose response” value ([1]; 25µM, Exp. 2) was 986 and the “Luciferase activity, UGA PTC, dose response” value ([1]; 25µM, average) was 1000±19 and 999.799. The “Luciferase activity, UGA PTC, dose response” value ([1]; 100µM, Exp. 1) was 1134.07, the “Luciferase activity, UGA PTC, dose response” value ([1]; 100µM, Exp. 2) was 1106 and the “Luciferase activity, UGA PTC, dose response” value ([1]; 100µM, average) was 1120±20 and 1120.03. The “Luciferase activity, UGA PTC, dose response” value ([1]; 300µM, Exp. 1) was 1723.63, the “Luciferase activity, UGA PTC, dose response” value ([1]; 300µM, Exp. 2) was 1679.5 and the “Increase in luciferase activity relative to background level” value ([1]; 300 µM, UGA) was “about twice the background level”. The “Luciferase activity, UGA PTC, dose response” value ([1]; 300µM, average) was 1702±31 and 1701.56, the “Luciferase activity, UGA PTC, dose response” value ([1]; 600µM, Exp. 1) was 1231.27 and the “Luciferase activity, UGA PTC, dose response” value ([1]; 600µM, Exp. 2) was 1202. For the same compound, the “Luciferase activity, UGA PTC, dose response” value ([1]; 600µM, average) was 1217±21 and 1216.63, the EC50 ([1]; Fig. 1D, authors' reply in peer review file, removed from final text) was ~100 µM and the “Concentration of maximal efficacy, UGA readthrough (luciferase)” value ([1]; Fig. 1D, peer review file) was 300 µM. The “Correction of the UGA nonsense mutation (luciferase activity), in words” value ([1]; Fig. 1c) was “corrected the UGA more efficiently than the UAG nonsense mutation”, the “Luciferase activity, UGA PTC” value ([1]; average of 2 experiments) was 8466.25±478 and 8466.25 and the “Luciferase activity, UGA PTC” value ([1]; experiment 1) was 8804.5. The “Luciferase activity, UGA PTC” value ([1]; experiment 2) was 8128, the “luciferase activity, average” value (FTSJ1; 0.5µg FTSJ1, 25µM) was 2984.12 and the “luciferase activity, exp1” value (FTSJ1; 0.5µg FTSJ1, 25µM) was 2303.5. For the same compound, the “luciferase activity, exp1*1,5” value (FTSJ1; 0.5µg FTSJ1, 25µM) was 3455.25, the “luciferase activity, exp2” value (FTSJ1; 0.5µg FTSJ1, 25µM) was 2513 and the “luciferase activity, average” value (FTSJ1; 0.5µg FTSJ1, 600µM) was 3518. The “luciferase activity, exp1” value (FTSJ1; 0.5µg FTSJ1, 600µM) was 2352, the “luciferase activity, exp1*1,5” value (FTSJ1; 0.5µg FTSJ1, 600µM) was 3528 and the “luciferase activity, exp2” value (FTSJ1; 0.5µg FTSJ1, 600µM) was 3508. The “luciferase activity, average” value (FTSJ1; 1µg FTSJ1, 25µM) was 2661.5, the “luciferase activity, exp1” value (FTSJ1; 1µg FTSJ1, 25µM) was 1562 and the “luciferase activity, exp1*1,5” value (FTSJ1; 1µg FTSJ1, 25µM) was 2343. For the same compound, the “luciferase activity, exp2” value (FTSJ1; 1µg FTSJ1, 25µM) was 2980, the “luciferase activity, average” value (FTSJ1; 1µg FTSJ1, 600µM) was 3066.25 and the “luciferase activity, exp1” value (FTSJ1; 1µg FTSJ1, 600µM) was 1933. The “luciferase activity, exp1*1,5” value (FTSJ1; 1µg FTSJ1, 600µM) was 2899.5, the “luciferase activity, exp2” value (FTSJ1; 1µg FTSJ1, 600µM) was 3233 and the “luciferase activity, average” value (FTSJ1; 2µg FTSJ1, 25µM) was 2020.12. For the same compound, the “luciferase activity, exp1” value (FTSJ1; 2µg FTSJ1, 25µM) was 1256.5, the “luciferase activity, exp1*1,5” value (FTSJ1; 2µg FTSJ1, 25µM) was 1884.75 and the “luciferase activity, exp2” value (FTSJ1; 2µg FTSJ1, 25µM) was 2155.5. For the same compound, the “luciferase activity, average” value (FTSJ1; 2µg FTSJ1, 600µM) was 2062.5, the “luciferase activity, exp1” value (FTSJ1; 2µg FTSJ1, 600µM) was 1540 and the “luciferase activity, exp1*1,5” value (FTSJ1; 2µg FTSJ1, 600µM) was 2310. For the same compound, the “luciferase activity, exp2” value (FTSJ1; 2µg FTSJ1, 600µM) was 1815.
